{
  "source": "PubChem BioAssay AID2384",
  "about": "(Southern Research Specialized Biocontainment Screening …, 2010)",
  "data": [
    {"test_system": "S. typhi GFP reporter counter-screen, fluorescence, 4 h", "test": "inhibitors in S. typhi counter-screen strain, dose response, counter-screen for PhoP regulon inhibitor project, fluorescence, 4 h (AID 2384)", "units": {"IC50": "µM"}, "values": [
      {"smiles": "Cc1ccc(C[n+]2c(-c3ccc(C)cc3)cc(-c3ccc(C)cc3)cc2-c2ccc(C)cc2)cc1", "IC50": 15.6},
      {"smiles": "O=C(Cn1nc(C(F)F)cc1C(F)F)NNC(=S)Nc1ccc([N+](=O)[O-])cc1", "IC50": 69.1},
      {"smiles": "N=c1c2c(-c3ccccc3)c(-c3ccccc3)n(Cc3ccco3)c2ncn1CCCn1ccnc1", "IC50": 39.4},
      {"smiles": "Cc1ccc(-n2c(-c3ccc(Br)cc3)c[n+]3c2CCc2ccc4cccnc4c2-3)cc1", "IC50": 40.6},
      {"smiles": "OCCCCNCc1ccc(OCc2ccccc2Cl)cc1", "IC50": 86},
      {"smiles": "CC(=O)NC(c1ccc2ccccc2c1)c1ccc2cccnc2c1O", "note": "(stereo unspecified)", "IC50": 66.7},
      {"smiles": "O=C(CNC(=O)c1cccc(F)c1)N/N=C/c1ccc([N+](=O)[O-])s1", "IC50": 36.9},
      {"smiles": "CCCCCOc1ccc(CSC2=NCCN2)cc1[N+](=O)[O-]", "IC50": 32},
      {"smiles": "C#CCOCCOCCOCCNc1nc(N2CCN(C(=O)[C@H](Cc3ccc(O)cc3)n3cc([C@@H](N)CC(C)C)nn3)CC2)nc(N2CCN(C(=O)[C@H](Cc3ccc(O)cc3)n3cc([C@@H](N)CC(C)C)nn3)CC2)n1", "IC50": 80},
      {"smiles": "O=C(CNC(=O)c1ccccc1)N/N=C/c1ccc([N+](=O)[O-])s1", "IC50": 28.7},
      {"smiles": "O=C(NC(=S)NNC(=O)c1cnccn1)c1ccc(F)cc1", "IC50": 24.4},
      {"smiles": "O=c1[nH]c(-c2ccccn2)nc(C(F)(F)F)c1Br", "IC50": 51.3},
      {"smiles": "NC1CCN(c2nc3c(cc2F)c(=O)c(C(=O)O)cn3-c2ccc(F)cc2F)C1", "note": "(stereo unspecified)", "IC50": 1.53},
      {"smiles": "c1ccc(N2CCN(c3nc4ccccc4[nH]3)CC2)nc1", "IC50": 138},
      {"smiles": "CN(C)CCNc1oc(COc2ccc(-c3ccccc3)cc2)nc1C#N", "IC50": 39},
      {"smiles": "CCCCCCCSc1cc(OC)c(CCNC)cc1OC", "IC50": 33.2},
      {"smiles": "CCOC(=O)c1ccc(CNCc2ccc(Br)cc2)cc1", "IC50": 45.4},
      {"smiles": "Oc1ccc(/C=N/N=C(c2ccccc2)c2ccccc2)c(O)c1O", "IC50": 33.6},
      {"smiles": "COc1ccccc1C(C[N+](=O)[O-])c1c(N)n(C)c(=O)n(C)c1=O", "note": "(stereo unspecified)", "IC50": 38.5},
      {"smiles": "CN(C)CCNC(=O)c1ccc(COc2ccc(Cl)cc2Cl)cc1", "IC50": 75.6},
      {"smiles": "O=C(Nc1ccc2nc(-c3ccc(Br)o3)[nH]c2c1)c1cccs1", "IC50": 15},
      {"smiles": "O=C(NNC(=S)NC(=O)c1ccco1)c1ccc(F)cc1", "IC50": 130},
      {"smiles": "N=c1c2c(n(Cc3cccc(Cl)c3)c3c1CCC3)CCCC2", "IC50": 47.8},
      {"smiles": "COc1ccc(/C=C/C(=O)NC(=S)NNC(=O)c2cnccn2)cc1", "IC50": 30.6},
      {"smiles": "c1ccc2c(c1)CCc1ccccc1C2=C1CCNCC1", "IC50": 58.2},
      {"smiles": "COc1ccc(Nc2nc(NCC3CCCO3)c3ccccc3n2)c(OC)c1", "note": "(stereo unspecified)", "IC50": 73.2},
      {"smiles": "CC[n+]1c(/C=C/N(C)c2ccccc2)n(-c2ccccc2)c2ccc(-c3nc4ccccc4s3)cc21", "IC50": 9.23},
      {"smiles": "Oc1ccc(C2NCc3ccccc3-n3cccc32)cc1Cl", "note": "(stereo unspecified)", "IC50": 89},
      {"smiles": "C/C(=C\\C(=O)OCCCCCCCCC(=O)O)C[C@@H]1OC[C@H](C[C@@H]2O[C@H]2[C@@H](C)[C@H](C)O)[C@@H](O)[C@H]1O", "IC50": 38.4},
      {"smiles": "Cc1cccc2c1Sc1ccc(Cl)cc1CC2N1CCNCC1", "note": "(stereo unspecified)", "IC50": 71.8},
      {"smiles": "O=c1cc(-c2ccc(O)cc2)oc2c(O)c(O)c(O)c(O)c12", "IC50": 35.6},
      {"smiles": "CCOc1cccc(/C=N/NC(=O)c2cc(C3CC3)[nH]n2)c1O", "IC50": 127},
      {"smiles": "COc1ccc(Nc2c3c(nc4ccccc24)CCC3)cc1", "IC50": 113},
      {"smiles": "OC(CNCCc1ccccc1)COc1ccc(OCC(O)CNCCc2ccccc2)cc1", "note": "(stereo unspecified)", "IC50": 21.3},
      {"smiles": "CCCN1CCC(NCc2cn(C)nc2-c2ccc(Oc3ccccc3)cc2)CC1", "IC50": 85.4},
      {"smiles": "O=C(CN1C2=NCCCN2c2ccccc21)c1ccc2c(c1)OCO2", "IC50": 126},
      {"smiles": "O=C(N/N=C/c1ccc([N+](=O)[O-])s1)c1cccnc1", "IC50": 34.7},
      {"smiles": "N=c1n(CCN2CCCCC2)c2ccccc2n1CC(=O)c1ccc(Cl)c(Cl)c1", "IC50": 16.4},
      {"smiles": "O=C(Nc1cccc(Cl)c1)Nc1nccs1", "IC50": 57.3},
      {"smiles": "CCN(CC(=O)NC(C)(C)C)C(=O)COc1c(Cl)cc(Cl)c2ccc(C)nc12", "IC50": 19},
      {"smiles": "CC1CCc2c(N3CCC(O)CC3)c(F)cc3c(=O)c(C(=O)O)cn1c23", "note": "(stereo unspecified)", "IC50": 18.9},
      {"smiles": "O=Nc1c(O)c2ccccc2c2ccccc12", "IC50": 37.7},
      {"smiles": "NC1=NC[C@H](Cc2ccc(O)cc2)N1CCCCC1CCCCC1", "IC50": 13.9},
      {"smiles": "CCC(/C=C1\\Sc2ccc(OC)cc2N1CCO)=C\\c1sc2ccc(OC)cc2[n+]1CCO", "IC50": 32},
      {"smiles": "O=C(C[n+]1cc(Br)cc2ccccc21)c1ccc(F)cc1", "IC50": 75.7},
      {"smiles": "Cc1ccc(N=Cc2cc(Br)cc(Cl)c2O)cc1", "IC50": 47.1},
      {"smiles": "CC(NCc1ccc(-c2ccccc2)cc1)C(O)c1ccccc1", "note": "(stereo unspecified)", "IC50": 39},
      {"smiles": "O=C(Nc1nnc(-c2cccs2)o1)c1cccc(Oc2ccccc2)c1", "IC50": 59.6},
      {"smiles": "CNC[C@H](Cc1ccccc1)NC[C@@H](Cc1cccc2ccccc12)NCCc1ccc(C)cc1", "IC50": 14.8},
      {"smiles": "COc1cc(CNCCc2c[nH]c3ccccc23)ccc1OCc1ccc(F)cc1", "IC50": 37.6},
      {"smiles": "O=C(NNC(=S)NC(=O)c1ccccc1)c1ccc(O)cc1", "IC50": 51},
      {"smiles": "CC1CC(C)CN(CCOc2ccc(Cl)cc2Cl)C1", "note": "(stereo unspecified)", "IC50": 88.2},
      {"smiles": "Nc1ncn(C2O[C@H](CO)[C@@H](O)[C@H]2O)c(=O)n1", "note": "(stereo partly specified)", "IC50": 35.2},
      {"smiles": "CC1CC(=O)c2c(cc3c(-c4c(O)cc(O)c5c(O)c6c(cc45)OC(C)CC6=O)c(O)cc(O)c3c2O)O1", "note": "(stereo unspecified)", "IC50": 28.6},
      {"smiles": "CN(C)CCCNc1c2ccccc2nc2ccccc12", "IC50": 40.7},
      {"smiles": "O=C(N/N=C/c1sc2ccccc2c1O)c1cccc2ccccc12", "IC50": 25.8}
    ]}
  ]
}
